Assay results taken from paper PMC5348404, “Systematic approach identifies RHOA as a potential biomarker therapeutic target for Asian gastric cancer” (Oncotarget, 2016).

target: T1, RHOA (Homo sapiens, UniProt P61586); experiment: surface plasmon resonance, immobilized RHOA (Reichert SR7500DC); assay type: binding
T1 construct: commercial RHOA protein (Sigma-Aldrich SRP5127), immobilized on CMDH gold chip
T1 sequence (P61586 whole entry): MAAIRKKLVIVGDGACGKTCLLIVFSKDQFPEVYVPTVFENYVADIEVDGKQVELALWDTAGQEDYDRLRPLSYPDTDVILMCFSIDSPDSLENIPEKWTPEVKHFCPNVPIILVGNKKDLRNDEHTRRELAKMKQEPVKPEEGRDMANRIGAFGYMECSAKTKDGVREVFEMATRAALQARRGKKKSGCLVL

Kd	Structure (SMILES)
8.7 ± 6 µM	CC(=O)N/N=C/c1ccc2c(c1)OCO2 [JK-125]
16.3 ± 0.4 µM	O=C(N/N=C/c1ccc2c(c1)OCO2)c1ccncc1 [JK-123]
67 ± 3 µM	O=S(=O)(N/N=C/c1ccc2c(c1)OCO2)c1ccccc1 [JK-121]
6.9 ± 0.4 µM	O=C(N/N=C/c1ccc2c(c1)OCO2)c1ccccc1 [JK-122]
44 ± 2 µM	O=C(N/N=C/c1ccc2c(c1)OCO2)c1ccc(O)cc1 [JK-124]
